{"source": "paper PMC7751407", "about": "“Novel oxindole/benzofuran hybrids as potential dual CDK2/GSK-3β inhibitors targeting breast cancer: design, synthesis, biological evaluation, and in silico studies” (Journal of Enzyme Inhibition and Medicinal Chemistry, 2020)", "key": {"MCF-7": {"tested_on": "MCF-7", "assay": "MTT anti-proliferative assay, MCF-7 breast cancer cells", "assay_type": "cell-based", "conditions": "Homo sapiens, MCF7, 48 h exposure, mean ± SD of three separate experiments", "protocol": "(§1) 1. Anti-proliferative activity toward human breast cell lines\n(§2) The two examined human breast cancer cell lines (T-47D and MCF-7) have been obtained from American Type Culture Collection (ATCC). Cells lines were maintained as monolayers in Dulbecco’s Modified Eagle’s Medium (DMEM) supplemented with 10% FBS, 2 mM L-glutamine, 100 U/ml penicillin and 100µg/ml streptomycin sulfate. Cells were sub-cultured with trypsine /EDTA solution, counted with haemocytometer and plated onto 96-well plates (5000 cells/well) and left overnight to form a semi-confluent monolayer. Cell monolayers were treated in quadrates with vehicle (DMSO, 0.1% v/v), test samples or Adriamycin as positive control for an exposure time of 48 h. At the end of exposure, MTT solution in PBS (5 mg/ml) was then added to all well including no cell blank and left to incubate for 90 min. The formation of formazan crystals were visually confirmed using phase contract microscopy. DMSO (100 µl/well) was added to dissolve the formazan crystals with shaking for 10 min after which the absorbance was read at 590 nm against no cell blanks on a FLuo Star Optima microplate reader (BMG technologies, Germany).\n(§3) Cell proliferation was calculated comparing the OD values of the DMSO control wells and those of the samples represented as % proliferation to the control. Dose-response experiment was performed on samples producing > or =50% loss of cell proliferation using five serial 2-fold […]\n(§4) IC50 values (concentration of sample causing 50% loss of cell proliferation of the vehicle control) were calculated using non-linear regression curve fitting of the dose response plots on GraphPad Prism V.6.0 software. […]"}, "T-47D": {"tested_on": "T-47D", "assay": "MTT anti-proliferative assay, T-47D breast cancer cells", "assay_type": "cell-based", "conditions": "Homo sapiens, T47D, 48 h exposure, mean ± SD of three separate experiments", "protocol": "as §1, §2, §3, §4"}, "MCF-10A": {"tested_on": "MCF-10A", "assay": "MTT cytotoxicity towards non-tumorigenic breast cells MCF-10A", "assay_type": "cell-based, human", "description": "In order to investigate their selectivity on cancer cells, hybrids 5d, 5e and 5f, endowed with dual growth inhibitory action against MCF-7 and T-47D cells, were assesses for their cytotoxic action towards the non-tumorigenic breast cells (MCF-10A), via the MTT assay. The obtained IC50s and the calculated mean tumour selectivity index (S.I.); IC50 for MCF-10A/IC50 average for (MCF-7 and T-47D) have been presented in Table 5.\nas §1, §2\nCell proliferation was calculated comparing the OD values of the DMSO control wells and those of the samples represented as % proliferation to the control. Dose-response experiment was performed on samples producing > or =50% loss of cell proliferation using five serial 2-fold dilutions (50, 25, 12.5, 6.25 and 3.125 µM) of the sample. IC50 values (concentration of sample causing 50% loss of cell proliferation of the vehicle control) were calculated using non-linear regression curve fitting of the dose response plots on GraphPad Prism V.6.0 software. […]"}, "CDK2": {"molecular_target": "T1, CDK2 (Homo sapiens, UniProt P24941)", "T1 construct": "purchased Promega, Milan, Italy V2971", "assay": "CDK2 kinase inhibition (CDK2 Kinase Enzyme System, Promega)", "assay_type": "biochemical", "conditions": "mean ± SD of three separate experiments", "protocol": "(§5) 2. CDK2/GSK-3β Kinase Inhibitory Activities\n(§6) The CDK2 and GSK-3β inhibitory activities were determined for hybrids 5a-g using the CDK2\n(§7) Kinase Enzyme System (catalog No. V2971) (Promega, Milan, Italy), and GSK3β Assay Kit"}, "GSK-3β": {"molecular_target": "T2, GSK-3β (Homo sapiens, UniProt P49841)", "T2 construct": "purchased BPS Biosciences, San Diego, CA, USA 79700", "T2 sequence (P49841 whole entry)": "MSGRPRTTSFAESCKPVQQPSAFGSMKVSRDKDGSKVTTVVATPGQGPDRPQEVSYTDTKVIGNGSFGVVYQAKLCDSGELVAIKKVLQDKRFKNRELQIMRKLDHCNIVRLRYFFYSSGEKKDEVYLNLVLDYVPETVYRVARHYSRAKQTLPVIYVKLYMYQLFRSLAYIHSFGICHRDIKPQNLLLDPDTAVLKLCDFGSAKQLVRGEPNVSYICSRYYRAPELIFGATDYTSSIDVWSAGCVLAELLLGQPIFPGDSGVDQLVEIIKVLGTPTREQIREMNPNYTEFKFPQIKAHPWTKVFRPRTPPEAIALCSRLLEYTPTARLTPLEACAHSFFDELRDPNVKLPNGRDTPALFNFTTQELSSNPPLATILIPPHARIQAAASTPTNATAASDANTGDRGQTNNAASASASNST", "assay": "GSK-3β kinase inhibition (GSK3β Assay Kit, BPS Biosciences)", "assay_type": "biochemical", "conditions": "mean ± SD of three separate experiments", "protocol": "as §5, §6, §7"}, "MCF-7 cells [1]": {"tested_on": "MCF-7 cells", "assay": "Cell cycle analysis by flow cytometry (PI stain) in MCF-7 cells", "assay_type": "cell-based, human", "conditions": "24 h, at IC50 concentration", "protocol": "Compounds showing promising antiproliferative as well as kinase inhibitory activity 5d, 5e and 5f were further investigated for their influence on the cell cycle progression by flow cytometry analysis using propidium iodide (PI) stain. Cell cycle parameters were compared for the breast cancer MCF-7 cells with DMSO as control and after treatment with the compounds of interest and incubation for 24 h, and the results were presented in Figure 5 and Table 3. […]\nconcentration), and then cells were washed twice with ice-cold phosphate buffered saline (PBS).\nSubsequently, the treated cells were collected by centrifugation, fixed in ice-cold 70% (v/v) ethanol, washed with PBS, re-suspended with 100 μg/mL RNase, stained with 40 μg/mL PI, and analyzed by flow cytometry using FACS Calibur (Becton Dickinson, BD, Franklin Lakes, NJ,"}, "MCF-7 cells [2]": {"tested_on": "MCF-7 cells", "assay": "Annexin V-FITC/PI dual staining apoptosis assay in MCF-7 cells", "assay_type": "cell-based, human", "conditions": "at IC50 concentration", "protocol": "To investigate further the effect of the promising compounds 5d, 5e, and 5f on cell apoptosis, Annexin V-FITC/propidium iodide dual staining assay was performed according to the reported method. The morphological markers of apoptosis in the breast cancer MCF-7 cell line were examined before and after treatment with the compounds of interest. Apoptosis assay depends on the translocation of the phosphatidylserine (PS) phospholipid to the cell surface in cells undergoing apoptosis which can be easily detected by staining with the fluorescent conjugate of annexin V followed by flow cytometry analysis. Simultaneously, MCF-7 cells were stained with propidium iodide (PI) which could enter cells with damaged plasma membranes only. This enables the discrimination between early apoptotic cells (positive for PS, but negative for PI) from late apoptotic and necrotic cells (positive for both PS and PI). […]\n4. Annexin V-FITC Apoptosis Assay\nPhosphatidylserine externalization was assayed using Annexin V-FITC/PI apoptosis detection kit (BD Biosciences, USA) according to the manufacturer’s instructions. Breast cancer MCF-7 cells were cultured to a monolayer then treated with hybrids (5d, 5e and 5f) at their IC50 concentration. Briefly, cells were then harvested via trypsinization, and rinsed twice in PBS followed by binding buffer. Moreover, cells were re-suspended in 100 μL of binding buffer with the addition of 1 μL of FITC-Annexin V followed by an incubation period of 30 min at 4 °C. Cells were then rinsed in binding buffer and resuspended in 150 μL of binding buffer with the addition of 1 μL of DAPI (1 μg/μL in PBS). Cells were then analyzed using the flow cytometer BD FACS Canto II and the results were interpreted with FlowJo7.6.4 software (Tree Star, Ashland, OR,"}}, "data": [{"smiles": "COc1ccc2c(c1)C(=NNC(=O)c1cc3cc(Br)ccc3o1)C(=O)N2", "note": "[5f, 5-Bromo-N'-(5-methoxy-2-oxoindolin-3-ylidene)benzofuran-2-carbohydrazide]", "values": [{"measurement": "IC50", "setting": "MCF-7", "value": "2270 ± 60", "unit": "nM"}, {"measurement": "IC50", "setting": "T-47D", "value": "7800 ± 250", "unit": "nM"}, {"measurement": "IC50", "setting": "MCF-10A; Homo sapiens, MCF-10A, MTT assay, non-tumorigenic breast cell line", "value": "40000 ± 1420", "unit": "nM"}, {"measurement": "Mean tumour selectivity index (S.I.)", "setting": "MCF-10A; IC50 for MCF-10A/IC50 average for (MCF-7 and T-47D)", "value": 7.9}, {"measurement": "IC50", "setting": "CDK2", "value": "52.8 ± 2.9", "unit": "nM"}, {"measurement": "IC50", "setting": "GSK-3β", "value": "40.1 ± 2.2", "unit": "nM"}, {"measurement": "%Sub-G1", "setting": "MCF-7 cells [1]; control 1.29", "value": 22.02, "unit": "%"}, {"measurement": "%G2/M", "setting": "MCF-7 cells [1]; control 11.3", "value": 37.82, "unit": "%"}, {"measurement": "%S", "setting": "MCF-7 cells [1]; control 33.82", "value": 17.88, "unit": "%"}, {"measurement": "%G0-G1", "setting": "MCF-7 cells [1]; control 53.59", "value": 22.28, "unit": "%"}, {"measurement": "Late Apoptosis (Upper Right %)", "setting": "MCF-7 cells [2]; control 0.19", "value": 22.16, "unit": "%"}, {"measurement": "Early Apoptosis (Lower Right %)", "setting": "MCF-7 cells [2]; control 0.63", "value": 3.94, "unit": "%"}, {"measurement": "Total apoptosis (L.R % + U.R %)", "setting": "MCF-7 cells [2]; control 0.82", "value": 26.10, "unit": "%"}, {"measurement": "Necrosis", "setting": "MCF-7 cells [2]; upper left quadrant, control 0.49", "value": 2.14, "unit": "%"}, {"measurement": "melting point", "value": "> 300", "unit": "°C"}]}]}
